One series deals with T1, MmCLK1 (Mus musculus, UniProt P22518).
T1 construct: host or cells: bacteria
Description: ADP-Glo kinase assay. In kind it is biochemical. Particulars: for remaining activity at 1 µM / remaining activity at 10 µM: n=2, read-out: % of residual activity Mm_CLK1. A general note: In ADP-Glo the light output rises with the ADP produced.

Series [1] in a line: cytotoxic assay, nuclei count (Hoechst, HCS). In kind it is cell-based. As to conditions: human, Caco-2 cells (colorectal adenocarcinoma); 48 h treatment; read-out: Cytotoxic studies IC50 Caco2.
Series [2] can be described thus: cytotoxic assay, nuclei count (Hoechst, HCS). In kind it is cell-based, human. Particulars: human, human skin fibroblasts (non-cancerous reference cells); 48 h treatment; some cells add low/moderate/high amplitude; read-out: Cytotoxic studies IC50 Fibroblasts.
The target of another series is T2, Hs_GSK3β (Homo sapiens, UniProt P49841).
T2 construct: host or cells: Sf9 insect cells (baculovirus)
T2 sequence (P49841 whole entry): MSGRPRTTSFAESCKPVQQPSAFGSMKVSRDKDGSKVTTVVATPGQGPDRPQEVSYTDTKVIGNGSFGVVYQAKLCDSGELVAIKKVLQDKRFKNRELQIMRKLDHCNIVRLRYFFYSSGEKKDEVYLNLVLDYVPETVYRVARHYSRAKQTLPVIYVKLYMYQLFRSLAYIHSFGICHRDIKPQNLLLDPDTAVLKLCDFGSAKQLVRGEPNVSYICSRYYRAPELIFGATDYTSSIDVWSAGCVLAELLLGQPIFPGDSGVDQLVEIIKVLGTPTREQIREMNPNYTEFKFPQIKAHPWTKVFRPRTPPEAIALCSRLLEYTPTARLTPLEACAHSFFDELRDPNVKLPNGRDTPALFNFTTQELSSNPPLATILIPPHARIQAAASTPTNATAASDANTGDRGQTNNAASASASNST
Description: ADP-Glo kinase assay, primary screen. The format is biochemical. As to conditions: n=2, read-out: % of residual activity Hs_GSK3β.

The next series has as its target T3, Hs_HASPIN (Homo sapiens, UniProt Q8TF76).
T3 construct: host or cells: bacteria
T3 sequence (Q8TF76 1-798): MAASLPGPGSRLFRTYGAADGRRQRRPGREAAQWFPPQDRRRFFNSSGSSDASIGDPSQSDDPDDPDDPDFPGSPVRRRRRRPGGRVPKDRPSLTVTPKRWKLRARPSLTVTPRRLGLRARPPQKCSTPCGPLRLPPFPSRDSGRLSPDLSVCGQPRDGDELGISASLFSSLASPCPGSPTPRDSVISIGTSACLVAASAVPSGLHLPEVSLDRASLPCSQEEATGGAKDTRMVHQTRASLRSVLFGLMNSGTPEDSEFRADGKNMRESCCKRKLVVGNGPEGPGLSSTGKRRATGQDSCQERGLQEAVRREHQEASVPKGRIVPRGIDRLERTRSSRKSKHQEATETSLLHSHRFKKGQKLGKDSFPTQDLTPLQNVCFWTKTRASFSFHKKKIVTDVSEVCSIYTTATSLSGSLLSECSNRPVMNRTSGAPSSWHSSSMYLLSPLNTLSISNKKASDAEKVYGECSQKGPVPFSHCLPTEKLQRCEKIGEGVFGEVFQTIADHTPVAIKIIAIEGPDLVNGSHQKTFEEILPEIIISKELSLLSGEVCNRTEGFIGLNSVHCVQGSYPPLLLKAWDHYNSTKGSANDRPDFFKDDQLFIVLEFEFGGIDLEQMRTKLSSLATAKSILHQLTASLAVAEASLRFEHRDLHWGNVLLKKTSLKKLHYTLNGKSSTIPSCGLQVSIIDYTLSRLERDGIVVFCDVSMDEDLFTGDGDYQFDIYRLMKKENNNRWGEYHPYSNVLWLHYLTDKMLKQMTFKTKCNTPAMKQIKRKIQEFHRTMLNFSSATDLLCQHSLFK
Kind of series: ADP-Glo kinase assay, primary screen. In kind it is biochemical. As to conditions: n=2, read-out: % of residual activity Hs_HASPIN.

Series [3] can be described thus: cytotoxic assay, nuclei count (Hoechst, HCS). In kind it is cell-based. Particulars: human, MDA-MB-231 cells (breast carcinoma); 48 h treatment; read-out: Cytotoxic studies IC50 MDA-MB-231.
The next series has as its target T4, Hs_CK1ε (Homo sapiens, UniProt P49674).
T4 construct: host or cells: Sf9 insect cells (baculovirus)
Kind of series: ADP-Glo kinase assay, primary screen. In kind it is biochemical. Particulars: n=2, read-out: % of residual activity Hs_CK1ε.

Series [4] in a line: cytotoxic assay, nuclei count (Hoechst, HCS). In kind it is cell-based. As to conditions: human, MCF7 cells (breast carcinoma); 48 h treatment; read-out: Cytotoxic studies IC50 MCF7.
Series [5] is described as follows: cytotoxic assay, nuclei count (Hoechst, HCS). In kind it is cell-based. Particulars: human, HuH7 cells (hepatocellular carcinoma); 48 h treatment; read-out: Cytotoxic studies IC50 HuH7.
A further series has as its target T5, HsCLK1 (Homo sapiens, UniProt P49759).
T5 construct: host or cells: Sf9 insect cells (baculovirus)
Kind of series: ADP-Glo kinase assay. The format is biochemical.

A further series deals with T6, Hs_CDK5/p25 (Homo sapiens, UniProt Q00535).
T6 construct: host or cells: bacteria
T6 sequence (Q00535 whole entry): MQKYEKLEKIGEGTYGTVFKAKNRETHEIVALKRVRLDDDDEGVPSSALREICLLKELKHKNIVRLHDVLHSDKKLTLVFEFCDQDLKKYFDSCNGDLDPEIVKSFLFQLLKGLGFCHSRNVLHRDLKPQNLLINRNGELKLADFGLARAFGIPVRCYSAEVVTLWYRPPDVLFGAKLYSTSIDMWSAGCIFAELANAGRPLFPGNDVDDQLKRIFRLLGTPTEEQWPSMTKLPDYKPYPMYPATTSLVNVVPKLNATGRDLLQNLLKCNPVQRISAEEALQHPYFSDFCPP
T6 sequence (Q15078 99-307 partner limits assumed): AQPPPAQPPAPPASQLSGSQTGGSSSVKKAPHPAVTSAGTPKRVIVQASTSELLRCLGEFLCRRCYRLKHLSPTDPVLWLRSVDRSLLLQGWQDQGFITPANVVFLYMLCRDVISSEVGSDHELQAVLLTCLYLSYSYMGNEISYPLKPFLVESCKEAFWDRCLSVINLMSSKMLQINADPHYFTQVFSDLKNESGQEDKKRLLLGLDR
Kind of series: ADP-Glo kinase assay, primary screen. In kind it is biochemical. Particulars: n=2, read-out: % of residual activity Hs_CDK5/p25.

Another series has as its target T7, HsDYRK1A (Homo sapiens, UniProt Q13627).
T7 construct: host or cells: Sf9 insect cells (baculovirus)
Description: ADP-Glo kinase assay. In kind it is biochemical. Particulars: for remaining activity at 1 µM / remaining activity at 10 µM: n=2, read-out: % of residual activity Hs_DYRK1A; for IC50: 10 µM ATP, duplicate.

Another series addresses T8, Rn_DYRK1A (Rattus norvegicus, UniProt Q63470).
T8 construct: host or cells: bacteria
Description: ADP-Glo kinase assay, primary screen. In kind it is biochemical. As to conditions: n=2, read-out: % of residual activity Rn_DYRK1A.

Another series addresses T9, Hs_CDK9/CyclinT (Homo sapiens, UniProt P50750).
T9 construct: host or cells: Sf9 insect cells (baculovirus)
Description: ADP-Glo kinase assay, primary screen. In kind it is biochemical. As to conditions: n=2, read-out: % of residual activity Hs_CDK9/CyclinT.

[6] abbreviates: mouse CLK1 orthologue, read-out: IC50 MmCLK1.
Setting [7] is: 10 µM ATP, duplicate, read-out: IC50 HsCLK1.

Several values for one entry are separate records, joined by “and”; a condition that tells them apart may be missing. Equal entries are not always repeated. Where two headings read alike, the source gives them in different places.

T1 sequence (P22518 whole entry): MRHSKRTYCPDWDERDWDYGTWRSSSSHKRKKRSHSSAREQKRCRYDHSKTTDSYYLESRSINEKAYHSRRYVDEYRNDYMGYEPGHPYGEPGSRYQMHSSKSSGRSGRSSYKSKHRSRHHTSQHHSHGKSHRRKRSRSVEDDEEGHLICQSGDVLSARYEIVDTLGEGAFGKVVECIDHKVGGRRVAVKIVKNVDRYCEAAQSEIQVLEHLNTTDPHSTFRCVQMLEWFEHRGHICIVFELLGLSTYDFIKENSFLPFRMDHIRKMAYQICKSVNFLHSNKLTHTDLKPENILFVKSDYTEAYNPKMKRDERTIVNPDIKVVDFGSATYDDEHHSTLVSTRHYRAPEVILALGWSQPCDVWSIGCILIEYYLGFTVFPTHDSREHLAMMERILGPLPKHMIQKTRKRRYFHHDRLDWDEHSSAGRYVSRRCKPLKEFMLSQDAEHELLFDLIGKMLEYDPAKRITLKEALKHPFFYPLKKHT
T4 sequence (P49674 whole entry): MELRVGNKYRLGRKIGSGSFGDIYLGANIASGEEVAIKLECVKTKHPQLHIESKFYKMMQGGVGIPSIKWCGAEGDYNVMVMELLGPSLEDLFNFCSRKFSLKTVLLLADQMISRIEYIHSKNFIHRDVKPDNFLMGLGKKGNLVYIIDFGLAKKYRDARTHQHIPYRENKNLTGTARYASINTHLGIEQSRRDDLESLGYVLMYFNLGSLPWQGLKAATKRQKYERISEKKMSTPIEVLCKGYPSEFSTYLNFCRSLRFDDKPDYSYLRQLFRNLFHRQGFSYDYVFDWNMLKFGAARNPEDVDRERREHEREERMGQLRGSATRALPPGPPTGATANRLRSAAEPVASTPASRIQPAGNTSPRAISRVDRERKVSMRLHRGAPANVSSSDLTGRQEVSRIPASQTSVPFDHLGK
T9 sequence (P50750 whole entry): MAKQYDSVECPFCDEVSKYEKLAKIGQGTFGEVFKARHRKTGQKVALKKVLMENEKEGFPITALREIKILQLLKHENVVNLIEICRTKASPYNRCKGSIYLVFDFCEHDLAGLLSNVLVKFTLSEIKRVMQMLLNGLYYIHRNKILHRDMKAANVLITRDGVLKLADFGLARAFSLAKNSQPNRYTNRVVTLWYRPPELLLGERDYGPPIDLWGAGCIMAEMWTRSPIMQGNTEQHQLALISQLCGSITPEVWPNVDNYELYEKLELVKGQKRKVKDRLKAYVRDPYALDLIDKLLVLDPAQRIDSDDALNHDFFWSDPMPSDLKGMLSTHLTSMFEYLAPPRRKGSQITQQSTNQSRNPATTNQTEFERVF
T9 sequence (O60563 whole entry partner): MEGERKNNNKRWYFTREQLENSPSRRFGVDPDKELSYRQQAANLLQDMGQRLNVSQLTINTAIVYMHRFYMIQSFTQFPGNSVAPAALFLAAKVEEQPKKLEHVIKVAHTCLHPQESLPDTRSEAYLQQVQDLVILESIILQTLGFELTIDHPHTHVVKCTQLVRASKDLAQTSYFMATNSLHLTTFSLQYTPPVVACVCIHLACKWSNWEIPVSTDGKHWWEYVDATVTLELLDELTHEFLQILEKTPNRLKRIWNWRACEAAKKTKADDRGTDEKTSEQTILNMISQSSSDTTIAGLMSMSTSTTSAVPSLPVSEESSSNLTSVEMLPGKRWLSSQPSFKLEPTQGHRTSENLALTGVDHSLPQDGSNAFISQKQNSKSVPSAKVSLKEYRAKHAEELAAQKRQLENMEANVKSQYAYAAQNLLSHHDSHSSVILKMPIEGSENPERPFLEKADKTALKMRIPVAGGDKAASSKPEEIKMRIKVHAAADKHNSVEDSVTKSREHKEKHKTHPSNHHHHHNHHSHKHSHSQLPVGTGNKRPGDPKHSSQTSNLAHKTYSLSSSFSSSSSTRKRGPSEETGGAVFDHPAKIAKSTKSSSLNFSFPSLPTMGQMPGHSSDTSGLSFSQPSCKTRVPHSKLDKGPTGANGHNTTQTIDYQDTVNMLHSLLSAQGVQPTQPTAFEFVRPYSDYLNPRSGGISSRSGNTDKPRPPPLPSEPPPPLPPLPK
T5 sequence (P49759 whole entry): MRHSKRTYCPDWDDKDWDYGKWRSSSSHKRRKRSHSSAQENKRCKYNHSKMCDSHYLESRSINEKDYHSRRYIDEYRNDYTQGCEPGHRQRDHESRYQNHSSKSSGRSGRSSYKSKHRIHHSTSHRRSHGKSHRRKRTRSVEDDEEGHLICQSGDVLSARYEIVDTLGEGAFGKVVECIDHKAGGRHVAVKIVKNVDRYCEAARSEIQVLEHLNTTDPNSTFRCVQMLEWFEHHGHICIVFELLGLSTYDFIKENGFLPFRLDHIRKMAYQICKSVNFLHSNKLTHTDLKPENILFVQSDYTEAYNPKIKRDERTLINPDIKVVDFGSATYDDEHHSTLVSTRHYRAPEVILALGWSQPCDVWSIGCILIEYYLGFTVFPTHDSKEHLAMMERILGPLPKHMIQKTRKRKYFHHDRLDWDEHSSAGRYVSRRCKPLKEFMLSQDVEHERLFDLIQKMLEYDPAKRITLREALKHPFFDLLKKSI

`Cc1ccc(-n2cc(COc3cccc4cnc(Nc5cccc(Cl)c5)nc34)nn2)c([N+](=O)[O-])c1` [DB18] had an IC50 on MmCLK1 of 0.12 µM.

Turning to `COC(=O)c1ccc(-n2cc(COc3cccc4cnc(Nc5cccc(Cl)c5)nc34)nn2)c([N+](=O)[O-])c1` [12f, Methyl 4-(4-(((2-((3-chlorophenyl)amino)quinazolin-8-yl)oxy)methyl)-1H-1,2,3-triazol-1-yl)-3-nitrobenzoate], the IC50 at 48 h in series [1], in [2], in series [3], in series [4] and in series [5] was greater than 25 µM throughout. Moreover, the remaining activity at 1 µM was 99% at Hs_GSK3β; 73% on Hs_HASPIN; no less than 100% at Hs_CK1ε; 28% on MmCLK1; no less than 100% at Hs_CDK5/p25; no less than 100% on HsDYRK1A. The remaining activity at 1 µM on Rn_DYRK1A is no less than 100%; at Hs_CDK9/CyclinT it was 73%. The remaining activity at 10 µM at Hs_GSK3β was 69%; on Hs_HASPIN, 76%; on Hs_CK1ε it was 95%; at MmCLK1 it was 18%; at Hs_CDK5/p25, 61%; on HsDYRK1A it was 93%. For the same compound, the remaining activity at 10 µM came to 83% on Rn_DYRK1A and 45% at Hs_CDK9/CyclinT. For the same compound, the IC50 on MmCLK1 (setting [6]) worked out at 0.245 µM; at HsCLK1 (setting [7]), 0.293 µM.

Turning to `Cc1ccc(-n2cc(COc3cccc4cnc(Nc5cc(Cl)cc(Cl)c5)nc34)nn2)c([N+](=O)[O-])c1` [7b, N-(3,5-dichlorophenyl)-8-((1-(4-methyl-2-nitrophenyl)-1H-1,2,3-triazol-4-yl)methoxy)quinazolin-2-amine], the IC50 at 48 h is greater than 25 µM in [1]; greater than 25 µM in series [2]; greater than 25 µM in series [3]; 24 µM in series [4]; greater than 25 µM in series [5]. The remaining activity at 1 µM on Hs_GSK3β is 85%; at Hs_HASPIN it was 81%; on Hs_CK1ε, 81%; on MmCLK1, 14%; on Hs_CDK5/p25, 93%; at HsDYRK1A it was no less than 100%. The remaining activity at 1 µM is 87% at Rn_DYRK1A and 80% at Hs_CDK9/CyclinT. The remaining activity at 10 µM was 36% on Hs_GSK3β; 46% at Hs_HASPIN; 47% at Hs_CK1ε; 17% on MmCLK1; 68% on Hs_CDK5/p25; 80% on HsDYRK1A. Moreover, the remaining activity at 10 µM at Rn_DYRK1A was 95%; at Hs_CDK9/CyclinT it was 34%. The IC50 was 0.28 to 0.369 µM on MmCLK1 (setting [6]), 0.085 µM on HsCLK1 (setting [7]) and greater than 100 µM against HsDYRK1A. Further, the “activity on the human DYRK1A” value on HsDYRK1A is “completely inactive”.

On to `O=[N+]([O-])c1cc(CO)ccc1-n1cc(COc2cccc3cnc(Nc4cccc(Cl)c4)nc23)nn1` [12e, 4-(4-(((2-((3-Chlorophenyl)amino)quinazolin-8-yl)oxy)methyl)-1H-1,2,3-triazol-1-yl)-3-nitrobenzyl alcohol], for which the IC50 at 48 h came to 7 µM in [1]; 6 µM in [2]; 6 µM in series [3]; 4 µM in series [4]; 3 µM in series [5]. Besides, the remaining activity at 1 µM on Hs_GSK3β was 99%; on Hs_HASPIN, 92%; at Hs_CK1ε it was no less than 100%; at MmCLK1, 74%; at Hs_CDK5/p25, no less than 100%; on HsDYRK1A it was 84%. Also, the remaining activity at 1 µM was determined as 80% at Rn_DYRK1A and 74% at Hs_CDK9/CyclinT. Also, the remaining activity at 10 µM came out at 35% on Hs_GSK3β; 88% on Hs_HASPIN; 52% at Hs_CK1ε; 35% at MmCLK1; 54% on Hs_CDK5/p25; 31% on HsDYRK1A. The remaining activity at 10 µM at Rn_DYRK1A stood at 34%; at Hs_CDK9/CyclinT it was 21%. Further, the IC50 is 0.191 µM at MmCLK1 (setting [6]); 0.146 µM on HsCLK1 (setting [7]); 0.15 to 0.2 µM at HsCLK1 (read-out: IC50 human CLK1); 2.3 µM and 2.33 µM against HsDYRK1A.

`O=[N+]([O-])c1cc(Br)ccc1-n1cc(COc2cccc3cnc(Nc4cccc(Cl)c4)nc23)nn1` [12d, N-(3-Chlorophenyl)-8-((1-(4-bromo-2-nitrophenyl)-1H-1,2,3-triazol-4-yl)methoxy)quinazolin-2-amine]: the IC50 at 48 h in series [1] was greater than 25 µM; in series [2], 13 µM; in [3] it was greater than 25 µM; in series [4], greater than 25 µM; in series [5], 2 µM. Also, the remaining activity at 1 µM was no less than 100% on Hs_GSK3β; 91% on Hs_HASPIN; no less than 100% at Hs_CK1ε; 27% on MmCLK1; no less than 100% at Hs_CDK5/p25; no less than 100% on HsDYRK1A. For the same compound, the remaining activity at 1 µM at Rn_DYRK1A was no less than 100%; on Hs_CDK9/CyclinT, 85%. For the same compound, the remaining activity at 10 µM at Hs_GSK3β is 75%; at Hs_HASPIN, 95%; at Hs_CK1ε, 90%; on MmCLK1, 22%; at Hs_CDK5/p25, no less than 100%; at HsDYRK1A it was 77%. Besides, the remaining activity at 10 µM at Rn_DYRK1A was 76%; on Hs_CDK9/CyclinT, 43%. In addition, the half-inhibitory concentration (IC50) was 0.391 µM at MmCLK1 (setting [6]); 0.2 to 0.3 µM and 0.378 µM at HsCLK1 (setting [7]).

A word on the IC50: it is the concentration that gives 50% inhibition.
